# According to US8604060B2, “Use of antagonists of the CBI receptor for the manufacture of a composition useful for the treatment of hepatic diseases” (INSERM, priority 2004, dated 2013):
# Legend:
# [1] = test system: human hepatic myofibroblasts; assay: DNA synthesis ([3H] thymidine incorporation) in human hepatic myofibroblasts stimulated with PDGF-BB; type: cell-based; conditions: 20 ng/ml PDGF-BB, 30 h, read-out: half maximal inhibition of DNA synthesis elicited by PDGF-BB
# Description: (§1) FIG. 3: Plots showing the effect of increasing amounts of CB1 antagonist SR141716 on DNA synthesis in human hepatic myofibroblast (panel A) and on wild type mice (shown as WT) and CB1 deficient mice (shown as CB1KO) (panel B). The DNA synthesis is expressed as a percentage of DNA synthesis in cells treated with the vehicle of SR 141716 and plotted against increasing concentrations of SR 141716 in nM. Human hepatic myofibroblast cells were stimulated for 30 h with varying concentrations of the CB1 receptor antagonist SR 141716, in the presence of 20 ng/ml of PDGF-BB [^3H] […] Error bars are shown on the plot. […] Thymidine incorporation into DNA was measured as mean±SEM, from 3-6 experiments obtained from cells isolated from livers of 3 WT and 3 CB1 -/- mice and are expressed as percent of control. […]
# (§2) DNA synthesis was measured in triplicate wells by incorporation of [3H] thymidine, as previously described (Tao, J., et al., J Biol Chem, 1999. 274(34): p. 23761-23769). […]
# (§3) The cell culture was performed as described in example 1 herein. Cell culture of both human and mouse hepatic myofibroblasts were exposed to increasing doses of CB1 receptor antagonist SR141716 and the DNA synthesis of hepatic myofibroblasts was measured.
# [2] = test system: murine myofibroblasts isolated from wild type mice; assay: DNA synthesis ([3H] thymidine incorporation) in murine hepatic myofibroblasts from wild type mice stimulated with PDGF-BB; type: cell-based, mouse; conditions: 20 ng/ml PDGF-BB, 30 h
# Description: as §1, §2, §3
# [3] = test system: CB1-/- cells (mouse hepatic myofibroblasts); assay: DNA synthesis ([3H] thymidine incorporation) in hepatic myofibroblasts from CB1-/- mice stimulated with PDGF-BB; type: cell-based; conditions: 20 ng/ml PDGF-BB, 30 h
# Description: as §1, §2, §3
# [4] = test system: CD1 mice; assay: Mortality induced by chronic carbon tetrachloride intoxication (experimental model of liver fibrosis) in mice; type: in vivo; conditions: 10 mg/kg daily intraperitoneal
# Description: FIG. 4: Plot showing the effect of SR141716 or its vehicle on the mortality induced by carbon tetrachloride in mice. The survival rate of mice treated with CC14 either with SR141716 (dotted lines) or with no treatment (solid lines showing the administration of vehicle only without CB1 antagonist) is shown against time in days. Time of administration of CC14 is shown by the arrow.
# The antifibrogenic potential of the CB1 antagonist SR 141716 in an experimental model of liver fibrosis, induced by chronic intoxication with carbon tetrachloride was evaluated.
# SR 141716 (10 mg/kg body weight) was dissolved freshly before use, in a vehicle solution (2 drops of Tween 80 in 10 ml of PBS containing 10% dimethylsulfoxide and 5% ethanol) and sonicated.
# CD1 mice were obtained from Janvier (France). All experiments were performed using accepted ethical guidelines. 36 males, aged 10-12 weeks, were used and animals were divided into the following groups: vehicle-treated, olive oil group (n=3); vehicle-treated, CC14 group (n=14); SR 141716-treated olive oil group (n=3); SR 141716A-treated, CC14 group (n=16). Animals were housed in temperature and humidity controlled rooms, kept on a 12-h light/dark cycle and provided unrestricted amounts of food and water, unless otherwise specified. […]
smiles,measurement,setting,value
"Cc1c(C(=O)NN2CCCCC2)nn(-c2ccc(Cl)cc2Cl)c1-c1ccc(Cl)cc1 [SR141716, N-piperidino-5-(4-chlorophenyl)-1-(2,4-dichlorophenyl)-4-methylpyrazole-3-carboxamide]",IC50,[1],300 to 400 nM
same,DNA synthesis elicited by PDGF-BB,[2],inhibited
same,proliferation (DNA synthesis elicited by PDGF-BB),[3],only marginally affected
same,survival rate at one month,"[4]; CC14 0.5 ml/kg IP twice a week for one month, started 7 days before CC14",83%
same,deaths in sham animals,[4]; olive oil (sham) mice,no deaths
